Source: ChEMBL document CHEMBL1143899, “Aryl-indolyl maleimides as inhibitors of CaMKIIdelta. Part 3: Importance of the indole orientation” (Bioorg Med Chem Lett, 2008)

target: T1, Calcium/calmodulin-dependent protein kinase type II subunit delta (Homo sapiens, UniProt Q13557); assay: Inhibition of CaMK2delta
T1 sequence (Q13557 whole entry): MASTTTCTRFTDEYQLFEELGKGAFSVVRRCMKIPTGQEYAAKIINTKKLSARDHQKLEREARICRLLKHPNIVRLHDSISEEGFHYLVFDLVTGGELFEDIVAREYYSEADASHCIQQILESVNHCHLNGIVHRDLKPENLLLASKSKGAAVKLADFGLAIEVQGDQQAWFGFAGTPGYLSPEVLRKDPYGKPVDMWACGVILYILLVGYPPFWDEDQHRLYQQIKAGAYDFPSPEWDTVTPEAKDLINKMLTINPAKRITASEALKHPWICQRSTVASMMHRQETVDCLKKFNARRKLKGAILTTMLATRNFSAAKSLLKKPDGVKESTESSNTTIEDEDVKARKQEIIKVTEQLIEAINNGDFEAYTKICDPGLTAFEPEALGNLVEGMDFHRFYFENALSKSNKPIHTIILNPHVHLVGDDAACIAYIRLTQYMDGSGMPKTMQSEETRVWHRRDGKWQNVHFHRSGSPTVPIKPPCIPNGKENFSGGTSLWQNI

SMILES	IC50
CNCCc1cn(C2=C(c3c[nH]c4ccc(C(=O)N(C)C)cc34)C(=O)NC2=O)c2ccccc12	11800 nM
NCCc1cn(C2=C(c3c[nH]c4ccc(Cl)cc34)C(=O)NC2=O)c2ccccc12	10 nM
Cc1[nH]c2ccccc2c1C1=C(c2cn(CCCN)c3ccccc23)C(=O)NC1=O	750 nM
CNCCc1cn(C2=C(c3c[nH]c4ccc(C(=O)NC)cc34)C(=O)NC2=O)c2ccccc12	280 nM
CN(C)CCc1cn(C2=C(c3c[nH]c4ccccc34)C(=O)NC2=O)c2ccccc12	560 nM
N#Cc1ccc2[nH]cc(C3=C(n4cc(CCN)c5ccccc54)C(=O)NC3=O)c2c1	46 nM
CN(C)Cc1cn(C2=C(c3c[nH]c4ccccc34)C(=O)NC2=O)c2ccccc12	2410 nM
NCCCn1cc(C2=C(c3c[nH]c4ccccc34)C(=O)NC2=O)c2ccccc21	380 nM
CNCCc1cn(C2=C(c3c[nH]c4ccc(C(N)=O)cc34)C(=O)NC2=O)c2ccccc12	190 nM
CNCCc1cn(C2=C(c3c[nH]c4ccc(C(=O)O)cc34)C(=O)NC2=O)c2ccccc12	380 nM
COc1ccc2[nH]cc(C3=C(n4cc(CCN)c5ccccc54)C(=O)NC3=O)c2c1	170 nM
CNCCc1cn(C2=C(c3c[nH]c4ccc(C(=O)OC)cc34)C(=O)NC2=O)c2ccccc12	21 nM
CNCCc1cn(C2=C(c3c[nH]c4ccccc34)C(=O)NC2=O)c2ccccc12	150 nM
CNCCc1cn(C2=C(c3c[nH]c4ccc(Cl)cc34)C(=O)NC2=O)c2ccccc12	13 nM
NCCc1cn(C2=C(c3c[nH]c4ccc(C(F)(F)F)cc34)C(=O)NC2=O)c2ccccc12	32 nM
NCCc1cn(C2=C(c3c[nH]c4ccc(F)cc34)C(=O)NC2=O)c2ccccc12	38 nM
CCc1ccc2[nH]cc(C3=C(n4cc(CCNC)c5ccccc54)C(=O)NC3=O)c2c1	110 nM
NCCc1cn(C2=C(c3c[nH]c4ccccc34)C(=O)NC2=O)c2ccccc12	110 nM
NCCCn1cc(C2=C(n3ccc4ccccc43)C(=O)NC2=O)c2ccccc21	4560 nM

target: T1, Calcium/calmodulin-dependent protein kinase type II subunit delta; assay: Inhibition of CaMK2delta using 3 weeks old stock solution of compound

SMILES	IC50
NCCCn1cc(C2=C(c3ccccc3)C(=O)NC2=O)c2ccccc21	230 nM
NCCCn1cc(C2=C(c3csc4ccccc34)C(=O)NC2=O)c2ccccc21	< 39 nM

target: T1, Calcium/calmodulin-dependent protein kinase type II subunit delta; assay: Inhibition of CaMK2delta using freshly stock solution of compound

SMILES	IC50
NCCCn1cc(C2=C(c3ccccc3)C(=O)NC2=O)c2ccccc21	350 nM
NCCCn1cc(C2=C(c3csc4ccccc34)C(=O)NC2=O)c2ccccc21	360 nM
